Here are results for 2 compounds from patent US11058744B2, “Composition for treating prostate cancer” (GemVax & KAEL Co., Ltd., priority 2013, dated 2021).

The test system of test [1] is prostate cancer. To be noted: administered together with docetaxel; Henly et al 2012; cited from earlier work.
For test [2], the system named is LNCaP cell line. Put plainly: Transwell migration assay on LNCaP cell line. The class given is cell-based, human. To be noted: medium containing docetaxel (3 nM), no Pep1. On the procedure: The effects of Pep1 on cancer cell migration were evaluated by trans-well assay.
The cancer cell migration was evaluated by using the reagents and materials and the cell line incubation method which are described in connection with Example 1. A migration assay method used for this experiment is as follows.
The LNCaP cell line was incubated on a 6-well plate overnight, and then treated with various concentrations of Pep1 (0, 1, 10, 30 μM) and incubated for 24 hours. Thereafter, the resultant LNCaP cell line was seeded at the cell population of 1×10^4/well on a trans-well plate. Three hours after, the upper compartment of each well was removed, and cells that had migrated downwards were immobilized, stained, and quantified.
A separate experiment was further performed to identify cell migration when Pep1 was co-administered with docetaxel. The LNCaP cell line was incubated on a 6-well plate overnight, and then, treated with various concentrations of Pep1(0, 1, 3, 10, and 30 μM) and incubated for 24 hours. Additionally, the cell line was incubated in a growth medium containing docetaxel (3 nM) for 48 hours, and then, seeded on a trans-well plate at a cell population of 1×10^4/well. Three hours after, the upper compartment of each well was removed, and cells that had migrated downwards were immobilized, stained, and quantified. […]

Test [3] concerns prostate cancer having a hormone tolerance. To be noted: Beer et al, 2001; cited from earlier work.

For the compound `Nc1cccc2c1CN(C1CCC(=O)NC1=O)C2=O` (stereo not drawn) [lenalidomide], the anti-cancer effects result in test [1] was “anti-cancer effects are significantly increased”.
On to `CC(=O)O[C@@]12CO[C@@H]1C[C@H](O)[C@@]1(C)C(=O)[C@H](O)C3=C(C)[C@@H](OC(=O)[C@H](O)[C@@H](NC(=O)OC(C)(C)C)c4ccccc4)C[C@@](O)([C@@H](OC(=O)c4ccccc4)[C@H]21)C3(C)C` [docetaxel], for which the “cancer cell migration (migrated cell number)” value in test [2] is reported as “the cancer cell migration was increased”. In test [3], the treatment efficiency result is reported as “about 40%”.
